Data on 7 molecules can be found in patent US20070166299A1, “TREATMENT FOR EMBOLIC STROKE” (priority 2005, published 2007).

Where two headings read alike, the source gives them in different places.

In data set [1] the test system is small clot embolic strokes in rabbits. The experiment in a line: rabbit small clot embolic stroke model (RSCEM), quantal analysis of behavior. In kind it is in vivo. An excerpt: The invention used a rabbit small clot embolic stroke model (RSCEM) that reproduces many facets of human AIS including a well-defined clinical endpoint. The RSCEM utilizes administration of a suspension of small blood clots to induce strokes, and behavioral deficits that can be measured quantitatively. Moreover, the RSCEM is useful to conduct studies testing the effects of single drugs or drug combinations such as a neuroprotective agent (e.g., NXY-059) plus a thrombolytic (Tenecteplase, Alteplase, Desmoteplase and the like). Since it is likely that a drug combination will be used for patient management it is important to determine whether there are any interactions (positive or negative) between the compounds when administered following embolic strokes.
Methods: Male New Zealand white rabbits were anesthetized using halothane (5% induction, 2% maintenance by facemask), the bifurcation of the right carotid artery was exposed and the external carotid was ligated just distal to the bifurcation, where a catheter was inserted into the common carotid and secured with ligatures. The incision was closed around the catheter with the distal ends left accessible outside the neck; the catheter was filled with heparinized saline and plugged with an injection cap. Rabbits were allowed to recover from anesthesia for a minimum of 3 h until they awoke and behaved normally.
For the RSCEM, microclots were prepared from blood drawn from a donor rabbit and allowed to clot at 37° C. All rabbits in the study received injections of the same sized microclots. For embolization, clot particles were rapidly injected through the carotid catheter and both the syringe and catheter were flushed with 5 ml of normal saline.
Treatment Regimens: (A) Dose-Response Curve: NXY-059 was administered IV at a dose of 0.1-100 mg/kg infused over 30 min beginning 1 hour following embolization. (B) Therapeutic Window: NXY-059 (100 mg/kg) was given beginning 1, 3 or 6 hours following embolization. (C) Tenecteplase Dosing: Tenecteplase was administered IV at a dose of 0.9 mg/kg as a bolus injection given over one minute was administered 1 or 6 hours following embolization. (D) Combination studies: NXY-059 was administered IV at a dose of 100 mg/kg infused over 30 min and Tenecteplase was administered IV at a dose of 0.9 mg/kg beginning 1 or 6 hours following embolization.
Quantal Dose-Response Analysis: For the RSCEM, a quantal dose-response data analysis technique was used. A wide range of lesion volumes is induced to generate both normal and abnormal animals. Using 3 or more different doses of microclots generated each quantal analysis curve. […] Each animal is rated as either normal or abnormal (including dead animals), and inter-rater variability is very low (<5%). […] With this simple rating system, the composite result for a group of animals is quite reproducible. The P50 values are then calculated. These parameters are measures of the amount of microclots (in mg) that produce neurologic dysfunction in 50% of a group of animals. A separate curve is generated for each treatment condition that was tested. The data were analyzed using the t-test, which included the Bonferroni correction where appropriate.
Using the RSCEM model as described above male New Zealand white rabbits weighing 2.2-2.6 Kg were anesthetized and a catheter was inserted into the common carotid artery through which microclots were injected. Briefly, the bifurcation of one carotid artery was exposed and the external carotid was ligated just distal to the bifurcation. A catheter was inserted into the common carotid and secured with ligatures. The incision was closed around the catheter so that the distal end was accessible outside the animal's neck. The catheter was then filled with heparinized saline and plugged with an injection cap. Rabbits were allowed to recover from anesthesia until they were awake and behaving normally. […]

Data set [2] deals with spinal cord ischemia induced by temporary occlusion of the infrarenal aorta. The data set is described as follows: rabbit reversible spinal cord ischemia model (RSCIM). In kind it is in vivo. The procedure:
In a rabbit reversible spinal cord ischemia model (RSCIM). ABHS was administered (25 mg/kg) intravenously (i.v.) 5 or 30 min following the start of occlusion to groups of rabbits exposed to ischemia induced by temporary occlusion of the infrarenal aorta. The group P50 represents the duration of ischemia (min) associated with a 50% probability of resultant permanent paraplegia.

The conditions of data set [3]: cited from earlier work.
[4] abbreviates: ABHS 25 mg/kg, 60 min following embolization.
[5] abbreviates: ABHS 25 mg/kg, 180 min following embolization.
[6] abbreviates: ABHS 25 mg/kg i.v., 5 min post-occlusion.

As for `O=C(C=Cc1ccc(O)c(O)c1)OC1CC(O)(C(=O)O)CC(O)C1O` (stereo not drawn) [CGA, 3-[[3-(3,4-Dihydroxyphenyl)-1-oxo-2-propenyl]oxy] 1,4,5-trihydroxycyclohexanecarboxylic acid], the P50 in data set [1] (CGA 50 mg/kg IV, 5 minutes following embolization, behavior 24 hours) is 3.61 ± 0.52 mg; in data set [1] (CGA 50 mg/kg single bolus, 1 hour post-embolization) it was 2.57 ± 0.28 mg; in data set [1] (CGA 50 mg/kg, 3 hours following embolization), 1.22 ± 0.24 mg.
As for `CC(=O)[C@H]1CC[C@H]2[C@@H]3CC[C@@H]4C[C@H](OC(=O)CCC(=O)O)CC[C@]4(C)[C@H]3CC[C@]12C` [ABHS, 3-alpha-ol-5-beta-pregnan-20-one hemisuccinate], in data set [1] (ABHS 25 mg/kg, 5 min following embolization), the Observation result is listed as “Sedation”. Besides, in data set [1] (setting [4]), the Observation result is “Sedation” and the P50 amounted to 1.05 ± 0.24 mg. Moreover, in data set [1] (setting [5]), the Observation entry is recorded as “Sedation” and the P50 turned out to be 1.42 ± 0.35 mg. The “effect on therapeutic window for tPA” value in data set [1] (ABHS with tPA (FIG. 7)) is “increases the therapeutic window for tPA”. For the same molecule, in data set [1] (IV ABHS administration to rabbits), the “duration of sedation (loss of righting reflex) after drug injection” value lay in the range of 2 to 3 h. Further, in data set [2] (setting [6]), the “P50 (duration of ischemia associated with 50% probability of permanent paraplegia)” value was found to be 49.18 ± 10.44 min and the “increase of P50 over control” value was 110%. Besides, in data set [2] (ABHS administered 30 min following the start of occlusion), the tolerance to ischemia result is reported as “increased the tolerance to ischemia”. For the same molecule, in data set [2] (ABHS injected 5 min following the start of ischemia and again 24 h after ischemia), the persistence of effect result was “persistent effect of the drug at 48 h”.
In the case of `O=c1c(O)c(-c2ccc(O)c(O)c2)oc2cc(O)ccc12` [Fisetin, fisetin], the P50 in data set [1] (Fisetin 50 mg/kg IV, 5 minutes following embolization) was determined as 2.18 ± 0.42 mg.
As for “tPA: thrombolytic, tissue plasminogen activator; FDA-approved treatment for acute ischemic stroke”, the P50 was 1.25 ± 0.25 mg in data set [1] (low-dose tPA 0.9 mg/kg alone, 60 min following embolization); 2.69 ± 0.19 mg in data set [1] (tPA 3.3 mg/kg alone, 60 min after embolization (ABHS study)); 2.89 ± 0.29 mg in data set [1] (tPA 3.3 mg/kg, 1 hour after embolization (CGA study)); 1.54 ± 0.27 mg in data set [1] (tPA 3.3 mg/kg, 3 hours after embolization (CGA study)). Moreover, the figures for the “increase of hemorrhage rate” value in data set [3] (high dose of tPA 3.3 mg/kg) and in data set [3] (low dose of tPA 0.9 mg/kg) were 52% and 28%, respectively.
With `CC12CC3CC(C)(C1)CC(N)(C3)C2` [memantine], the “effect on efficacy of low-dose tPA” value in data set [1] (memantine with low-dose tPA (FIG. 8)) is listed as “increases the efficacy of low-dose tPA: synergy”.
Consider `O=c1cc(-c2ccccc2)oc2cc(O)c(O)c(O)c12` [Baicalein, 5,6,7 trihydroxyflavone], for which the P50 in data set [1] (Baicalein 100 mg/kg SC, 5 minutes following embolization) amounted to 2.85 ± 0.64 mg.
Turning to `CC(C)(C)[N+]([O-])=Cc1ccc(S(=O)(=O)O)cc1S(=O)(=O)O.[Na].[Na]` [NXY-059, disodium 2,4-disulfophenyl-N-tert-butylnitrone], the P50 was 2.81 ± 0.46 mg in data set [1] (NXY-059 100 mg/kg IV, 1 hour following embolization, measured 24 hours after embolization) and 1.78 ± 0.42 mg in data set [1] (NXY-059 100 mg/kg, 3 hours following embolization). Further, the “increase of P50 over vehicle control” value in data set [1] (NXY-059 1-100 mg/kg administered following embolization) was 100-134%. For the same molecule, the “effect on P50 (dose-response)” value in data set [1] (NXY-059 doses from 1-100 mg/kg, 1 hour following embolization) is reported as “significantly increased the P50”.
